Converted amounts (≈) assume the structure as drawn. “Also recorded” adds a separate entry of the source.
Tests used:
Jack bean urease = target: T1, Jack bean urease (Canavalia ensiformis, UniProt P07374); assay: biochemical; format: biochemical
T1 construct: purchased Sigma Aldrich
Protocol: Reaction mixture comprising 40 μL of buffer (K2HPO4: 10 mmol/L, urea: 100 mmol/L, […]: 10 mmol/L, EDTA: 1 /L mmol, pH = 8.2) and 5 U/mL enzyme (10 μL) were pre-incubated with 10 μL of synthesized compounds (1 mM) and substrate urea (1 mM) were incubated at room temperature in 96 well plate for half an hour. After the incubation at room temperature, absorbance was taken at specific wavelength (630 nm) employing a microplate reader (Bio-Tek, USA) with R1 and R2 reagents in each well. The reactions were measured in triplicate fashion. To calculate the inhibition percentage following equation was used.
Percentage inhibition = 100 –[tested compound/control compound] × 100.

H. pylori [1] = assay: MIC against H. pylori, agar dilution method; format: cell-based, Helicobacter pylori; conditions: Helicobacter pylori, ATCC43504; H. pylori ATCC 43504, agar dilution; read-out: MIC value against H. pylori ± SEM
H. pylori [2] = assay: IC50 against H. pylori, micro broth dilution test; format: cell-based, Helicobacter pylori; conditions: Helicobacter pylori, ATCC43504; H. pylori ATCC 43504, micro broth dilution, 72 h, OD 600 nm; read-out: IC50 value against H. pylori ± SEM
urease = target: T2, urease (Canavalia ensiformis, UniProt P07374); assay: Enzyme kinetics study (Michaelis-Menten, Lineweaver-Burk) of urease inhibition; format: biochemical, Jack bean; conditions: urea substrate 0.5-2.0 mM, inhibitor 0, 1.5, 3.0, 4.5 μM, Lineweaver-Burk plot
T2 construct: purchased Sigma Aldrich
Protocol: The type of enzyme inhibition was determined by Michaelis-Menten kinetics experiments. In order to investigate the potential mechanism of action of the potent compound 2c, detailed kinetics studies were conducted. The initial inhibitory efficacy rates of enzyme activity were measured at four different concentrations of substrate (0.5, 1.0, 1.5 and 2.0 mM) in the presence or absence of compound 2c (0, 1.5, 3.0, 4.5 μM) against urease.
Kinetics studies were performed to determine the mode of action of compound 2c. The mechanism of inhibition of urease was determined by enzyme kinetics using urea as a substrate. To determine the type of inhibition, analyze the effect of inhibitor on Vmax and Km, a Lineweaver-Burk plot (reciprocal of reaction rates […] and reciprocal of substrate concentrations […]) was used.
Different concentrations of inhibitor 2c and substrate were used to perform kinetics. Four concentrations (0, 1.5, 3.0, 4.5 μM) of inhibitor 2c and four concentrations (0.5, 1.0, 1.5 and 2.0 mM) of substrate were used.

T2 sequence (P07374 whole entry, looked up): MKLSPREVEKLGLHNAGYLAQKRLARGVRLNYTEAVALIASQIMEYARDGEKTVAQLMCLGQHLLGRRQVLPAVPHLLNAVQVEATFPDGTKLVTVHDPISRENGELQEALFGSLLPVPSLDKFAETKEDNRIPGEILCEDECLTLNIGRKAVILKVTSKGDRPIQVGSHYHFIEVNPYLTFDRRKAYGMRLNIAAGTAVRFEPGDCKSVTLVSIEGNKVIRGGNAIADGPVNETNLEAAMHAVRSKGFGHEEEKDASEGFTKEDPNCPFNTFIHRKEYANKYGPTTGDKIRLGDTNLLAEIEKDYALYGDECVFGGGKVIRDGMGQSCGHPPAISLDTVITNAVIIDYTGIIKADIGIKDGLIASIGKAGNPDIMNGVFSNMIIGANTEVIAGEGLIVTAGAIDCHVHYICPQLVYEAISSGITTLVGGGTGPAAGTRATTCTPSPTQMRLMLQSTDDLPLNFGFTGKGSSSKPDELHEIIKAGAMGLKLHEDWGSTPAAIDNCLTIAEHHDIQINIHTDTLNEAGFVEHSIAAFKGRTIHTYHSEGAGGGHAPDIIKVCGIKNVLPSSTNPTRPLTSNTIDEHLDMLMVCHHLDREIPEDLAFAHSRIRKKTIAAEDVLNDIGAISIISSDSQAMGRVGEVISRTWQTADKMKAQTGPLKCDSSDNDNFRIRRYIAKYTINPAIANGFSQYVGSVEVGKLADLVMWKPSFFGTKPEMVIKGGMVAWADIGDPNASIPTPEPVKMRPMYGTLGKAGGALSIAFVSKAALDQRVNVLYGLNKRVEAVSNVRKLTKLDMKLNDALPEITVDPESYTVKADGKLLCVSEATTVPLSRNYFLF
T1 sequence (P07374 whole entry, looked up): as above

CCCS(=O)(=O)Oc1cccc(-c2nc3sccn3c2-c2cccc(S(C)(=O)=O)c2)c1 [Compound 2c, 3-(5-(3-(Methylsulfonyl)phenyl)imidazo[2,1-b]thiazol-6-yl)phenyl propane-1-sulfonate]
IC50 (Jack bean urease): 2.94 ± 0.05 µM
fold more potent than thiourea positive control (urease inhibition) (Jack bean urease; ratio of IC50 vs thiourea): 8 fold
MIC (H. pylori [1]): 800 µM (≈ 381 µg/mL)
melting point: 188 to 191 °C
IC50 (H. pylori [2]): 281 ± 21 µM
type of urease inhibition (urease): competitive inhibition; also recorded: competitive inhibitor

From article PMC10237672, “Design and synthesis of novel anti-urease imidazothiazole derivatives with promising antibacterial activity against Helicobacter pylori” (PLOS ONE, 2023)
